Laboratory results published in patent publication US5977174A, “Cholinergic compositions and uses thereof” (Neuromedica, Inc., priority 1997, dated 1999).
Like-named read-outs stand apart in the source and are kept apart here.

Tests used:
[1] = cited from earlier work
[2] = system: locomotor activity of mice; experiment: Locomotor activity study (dose-response of DHA-choline-induced locomotor depression); assay type: in vivo, male Swiss-Webster mice (Hsd:ND4); conditions: 20 min pretreatment
Description: A dose-response study of DHA-choline-induced locomotor depression was conducted using 40 Digiscan locomotor activity testing chambers (40.5×40.5×30.5 cm) housed in sets of two, within sound attenuating chambers. A panel of infrared beams (16 beams) and corresponding photo detectors were located in the horizontal direction along the sides of each activity chamber. A 7.5W incandescent light above each chamber provided dim illumination. Fans provided an 80-dB ambient noise level within the chamber. Separate groups of 8 non-habituated male Swiss-Webster mice (Hsd:ND4, aged 2-3 mo.) were injected via the intraperitoneal route (i.p.) with either vehicle or DHA-choline (0.5, 2.5, 5, 10, 20 or 40 mg/kg), 20 minutes prior to locomotor activity testing. In all studies, the total distance (cm traversed in the horizontal plane) was measured for 2 hours within 10 min periods.
The figures show the dose response data for the locomotor activity (Stewart et al., Psychopharmacol 60:281, 1979) of mice injected with different doses of the compound. The figures show average distance per 10 min as a function of time (FIG. 1) and dose (FIG. 2) 20 minutes following DHA-choline pretreatment. The period 0-30 min was selected for analysis of dose-response data because this is the time period in which DHA-choline produced maximal effects. […]

[3] = system: rat brain; experiment: Infarct volume after MCA occlusion of rat brain (triphenyltetrazolium chloride staining); assay type: in vivo; conditions: 50 mg/kg i.p. at three hours after initiation of the stroke event; n=5
Description: Two sets of experiments were carried out. In the first set, rats were administered with 50 mg/kg of DHA-choline i.p. at 30 minutes prior to occlusion of the middle cerebral artery of the left side of the brain using a standard highly reproducible animal model of stroke (Karpiak et al., J. Neurosci Res.30:512-520, 1991). Occlusion of the middle cerebral artery inhibits blood flow to a major portion of the left cortical and subcortical regions of the brain. After a two hour period, the occluded blood vessel was opened to allow reperfusion of the brain, and anesthesia was terminated. Each animal received additional doses of 50 mg/kg of DHA-choline 24 and 48 hours later.
The animals were sacrificed, perfused with formalin fixative, brains were sliced into seven 2 mm thick coronal sections, and stained with triphenyltetrazolium chloride (Watson et al., J. Neurosci. Methods 53:203-208, 1994). In this test, tissue that contains intact mitochondria stains red, whereas dead tissue with damaged mitochondria picks up no stain and remains white. Each unstained area on the left side of a section was measured and compared to the total area of the control non-occluded right side of the same section of the brain. The area of damaged (white) brain tissue cells was calculated as a percent of the intact right side of a section. […] (n=5 per group.) […]

[4] = Solubility; assay type: physicochemical; conditions: for solubility: read-out: Solubility: amount dissolved in 1.0 mL; for Solubility in solvents: organic solvents, water
[5] = Stability; assay type: physicochemical
Description: The compound should be kept at -20° C. under Argon.

[6] = animal models, clinical trials; cited from earlier work
[7] = models of aging; cited from earlier work

CC/C=C\C/C=C\C/C=C\C/C=C\C/C=C\C/C=C\CCC(=O)O [DHA, cis-docosahexaenoic acid]
stability in the presence of oxygen [1]: can be unstable in the presence of oxygen

CC/C=C\C/C=C\C/C=C\C/C=C\C/C=C\C/C=C\CCC(=O)OCC[N+](C)(C)C [DHA-choline, Docosahexaenoyl Choline Iodide]
ED50 ([2]; Mus musculus, ip, 0-30 min period, maximal depressant activity = 0 cm/30 min, read-out: ID50 dose producing 1/2 maximal depressant activity (locomotor activity)): 12.9 mg/kg | time period of maximal effects ([2]; i.p.): 0 to 30 min | infarct volume relative to vehicle controls [3]: approximately 50% | solubility ([4]; 1.0 mL ascorbic acid in saline with 0.02 mL detergent): 5500 µg/mL | solubility ([4]; 10% albumin saline with detergent, 1.0 mL 10% albumin in saline with 0.01 mL detergent): 7800 µg/mL | Solubility in solvents [4]: soluble in CH2 Cl2, CHCl3, EtOAc, EtOH insoluble in hexanes, Et2 O | Stability in air (1H NMR analysis) ([5]; exposed in the air for 5 days): had not decomposed | Stability on long exposure to air ([5]; exposed in the air for too long): will decompose

CC/C=C\C/C=C\C/C=C\C/C=C\C/C=C\C/C=C\CCC(=O)OCCN(C)C [2-dimethylaminoethyl docosahexaenoate]
Solubility in solvents [4]: soluble in EtOAc, Et2 O, CH2 C2, CHCl3, EtOH insoluble in H2 O | Stability in air (appearance) ([5]; exposed in the air for several days): turns dark when exposed in the air for several days

C[N+](C)(C)CCOP(=O)(O)OP(=O)([O-])OC[C@H]1O[C@@H](n2ccc(N)nc2=O)[C@H](O)[C@@H]1O [CDP-choline, Cytidine 5'-diphosphocholine]
neuroprotective effect [6]: neuroprotective effect | effect on memory and learning deficits [7]: improves memory and learning deficits
